#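 Assay format: 96-well plates, 48-hour exposure. GI50: concentration for 50% inhibition of growth. Definition used: TGI = concentration required for complete inhibition of growth.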
# Legend:
# Experiment in all cases: DTP human tumour cell line panel, 48 h
# CCRF-CEM leukemia = system: CCRF-CEM leukemia
# HL-60(TB) leukemia = system: HL-60(TB) leukemia
# NCI-H460 lung = system: NCI-H460 lung
# OVCAR-3 ovarian = system: OVCAR-3 ovarian
# SF-539 CNS = system: SF-539 CNS
# SK-MEL-2 melanoma = system: SK-MEL-2 melanoma
# SK-MEL-5 melanoma = system: SK-MEL-5 melanoma
# SN12C renal = system: SN12C renal
# U251 CNS = system: U251 CNS
# UO-31 renal = system: UO-31 renal
SMILES,GI50 (CCRF-CEM leukemia),TGI (CCRF-CEM leukemia),GI50 (HL-60(TB) leukemia),TGI (HL-60(TB) leukemia),GI50 (NCI-H460 lung),TGI (NCI-H460 lung),GI50 (OVCAR-3 ovarian),TGI (OVCAR-3 ovarian),GI50 (SF-539 CNS),TGI (SF-539 CNS),GI50 (SK-MEL-2 melanoma),TGI (SK-MEL-2 melanoma),GI50 (SK-MEL-5 melanoma),TGI (SK-MEL-5 melanoma),GI50 (SN12C renal),TGI (SN12C renal),GI50 (U251 CNS),TGI (U251 CNS),GI50 (UO-31 renal),TGI (UO-31 renal)
COc1ccc(N=c2nc3sc4cc(Cl)ccc4n3c(N)c2C#N)cc1,11 µM,> 100 µM,11.4 µM,> 94.9 µM,21.1 µM,> 100 µM,9.66 µM,44.8 µM,9.71 µM,> 100 µM,2.8 µM,34.7 µM,1.64 µM,3.42 µM,15.3 µM,> 100 µM,4.38 µM,> 100 µM,18.3 µM,> 100 µM
CCN(CC)c1ccc(/C=N/N=C(N)N)cc1,3.5 µM,67.7 µM,2.84 µM,7.95 µM,3.57 µM,15.1 µM,2.21 µM,4.91 µM,5.06 µM,30.5 µM,2.85 µM,8.33 µM,3.16 µM,13.4 µM,4.88 µM,27.2 µM,5.49 µM,23.4 µM,6.78 µM,38.9 µM
COc1ccc(C(=O)c2ccccc2)c(O)c1,> 100 µM,> 100 µM,96.9 µM,> 100 µM,88.4 µM,> 100 µM,> 100 µM,> 100 µM,> 100 µM,> 100 µM,> 100 µM,> 100 µM,37.9 µM,> 100 µM,75.6 µM,> 100 µM,66.3 µM,> 100 µM,17 µM,> 100 µM
N#C/C(=C/C=C/c1cccc(Cl)c1)S(=O)c1ccccc1 (stereo not given),0.296 µM,1.21 µM,0.285 µM,2.16 µM,0.474 µM,2.51 µM,0.253 µM,0.782 µM,0.281 µM,0.882 µM,1.62 µM,3.66 µM,1.79 µM,3.61 µM,0.359 µM,1.42 µM,0.361 µM,1.31 µM,0.358 µM,1.71 µM
CC(=O)c1nc(-c2ccc(C[C@@H](CNC(=O)CN(C)C)NC(=O)c3ccc(OC(C)C)c(Cl)c3)cc2)cn1C,0.0447 µM,34.7 µM,0.0223 µM,0.0719 µM,0.0291 µM,11.8 µM,0.0332 µM,13.3 µM,0.0341 µM,3.03 µM,0.061 µM,15.5 µM,0.0707 µM,5.51 µM,0.0579 µM,17.1 µM,0.0215 µM,16.7 µM,0.723 µM,17.6 µM
CCOc1ccc2cc(-c3nn(CC4CCN(C)CC4)c4ncnc(N)c34)ccc2c1,16.8 µM,55.2 µM,15.7 µM,34.6 µM,16.7 µM,33.7 µM,16.2 µM,39.7 µM,14.1 µM,27.2 µM,17 µM,32.4 µM,15.8 µM,29.3 µM,12 µM,32.1 µM,12.9 µM,27.5 µM,4.2 µM,19.5 µM
COc1ccc2c(c1)[n+](=O)c(/C=C/C(=O)c1cc(OC)c(OC)c(OC)c1)c(C)n2[O-],1.87 µM,8.08 µM,4.98 µM,22.4 µM,13.3 µM,45.5 µM,2.04 µM,11.7 µM,15.7 µM,38.8 µM,11.5 µM,28.3 µM,12.6 µM,34.3 µM,6.33 µM,48.5 µM,5.94 µM,47 µM,3.57 µM,> 100 µM
O=C1C=C(NCCc2ccccc2)c2ccccc2C1=O,,67.9 µM,,13.6 µM,,3.18 µM,,5.59 µM,,4.46 µM,,5.18 µM,,2.31 µM,,3.37 µM,,16.1 µM,,11.4 µM
O=S1(=O)CCC2=CC(C(F)(F)F)=CC(C(F)(F)F)=CN21,,2.48 µM,,3.9 µM,,8.01 µM,,3.14 µM,,3.8 µM,,4.1 µM,,3.02 µM,,3.38 µM,,3.43 µM,,2.05 µM
COc1ccc(C2=NNC(c3sc(Cl)nc3Cl)C2)cc1 (stereo not given),2.75 µM,15.7 µM,10.4 µM,64.1 µM,24.3 µM,75.1 µM,3.26 µM,8.79 µM,4.58 µM,32 µM,5.47 µM,21 µM,3.51 µM,14.3 µM,4.02 µM,16.7 µM,9.08 µM,22.1 µM,6.62 µM,20.3 µM

# From PubChem BioAssay (NCI)
